Test results: ChEMBL document CHEMBL4184162, “Hybrid DNA i-motif: Aminoethylprolyl-PNA (pC5) enhance the stability of DNA (dC5) i-motif structure” (Bioorg Med Chem Lett, 2017)
The source made the active and inactive calls. The rule behind the calls is not given here.

Assays:
[1] = Stabilization of i-motif DNA (unknown origin) assessed as change in melting temperature at 22.5 uM at pH 4.5 in presence of DC5 by UV-based analysis
[2] = Stabilization of i-motif DNA (unknown origin) at 22.5 uM at pH 4 to 6 by CD-spectra analysis
[3] = Stabilization of i-motif DNA (unknown origin) assessed as change in melting temperature at 22.5 uM at pH 5.5 in presence of DC5 by UV-based analysis
[4] = Stabilization of i-motif DNA (unknown origin) assessed as change in melting temperature at 22.5 uM at pH 6 in presence of DC5 by UV-based analysis
[5] = Stabilization of i-motif DNA (unknown origin) assessed as change in melting temperature at 22.5 uM at pH 5 in presence of DC5 by UV-based analysis

CC(=O)NCCN1C[C@@H](n2ccc(N)nc2=O)C[C@H]1C(=O)NCCN1C[C@@H](n2ccc(N)nc2=O)C[C@H]1C(=O)NCCN1C[C@@H](n2ccc(N)nc2=O)C[C@H]1C(=O)NCCN1C[C@@H](n2ccc(N)nc2=O)C[C@H]1C(=O)NCCN1C[C@@H](n2ccc(N)nc2=O)C[C@H]1C(=O)NCCC(N)=O
ΔTm [1]: 15.3 °C
Activity [2]: Active
ΔTm [3]: 8.85 °C
ΔTm [4]: 13.2 °C
ΔTm [5]: 17.9 °C
